According to US11945794B2, “Nuclear transport modulators and uses thereof” (Karyopharm Therapeutics Inc., priority 2013, dated 2024):

Tests used:
[1] = target: T1, CRM1 (Homo sapiens, UniProt O14980); experiment: Washout assay in U2OS Rev-GFP cells; type: cell-based; settings: 24 hour washout versus no washout
T1 construct: endogenous in cells; host or cells: U2OS cells stably expressing Rev-GFP
Description: After 4 hours, one of the plates was fixed with PFA (no washout, condition A). […] A second plate was fixed with PFA after a 4 hour washout (4 hr washout, condition B) and a third plate was fixed with PFA after a 24 hour washout (24 h washout, condition C). Cells were counterstained with the nuclear dye DAPI.

[2] = tested on: XPO1 cargo proteins: p53, IκB, Foxo1A, PP2A, p21 and p27; experiment: XPO1 cargo localization assay in U2OS cells (immunofluorescence); type: cell-based; settings: 500 nM, 4 to 24 hours
Description: The fixed cells were analyzed by immunofluorescence (IF) for the nuclear localization of the following XPO1 cargo proteins: p53, IκB, Foxo1A, PP2A, p21 and p27. Nuclei were stained with DAPI. Images were taken at 20× magnification.

[3] = tested on: anti-collagen antibody-induced arthritis; experiment: Collagen antibody-induced arthritis (CAIA) mouse model; type: in vivo
Description: On study Day 0 (study commencement), all mice were subjected to a 4 mg intravenous injection of ArthritoMAb™ antibody cocktail (MD Biosciences #51306001), followed by an intraperitoneal injection of LPS (50 μg/mouse) on study Day 3. The mice began treatment on Day 6, when the average clinical scores reached 2.
The animals were examined for signs of arthritis on study Day 0 in all paws (front left and right paws, hind left and right paws). The signs of arthritis on study Day 0 served as a baseline for the arthritis clinical score parameter. Arthritic responses were examined daily from Day 3 until Day 8, and on Days 10, 12, 15 and 18 (study termination).
Clinical signs data are presented as means±SEM (standard error of the mean). Treatment groups 2-3 were compared to vehicle group 1 using one-way ANOVA test followed by Tukey post-test. A p value of <0.05 is considered to represent a significant difference.

[4] = tested on: Hep 3B xenograft; experiment: Hep3B hepatocellular carcinoma xenograft model; type: in vivo, mouse
Description: Hep 3B cells (ATCC #HTB-8064) hepatocellular carcinoma cells were obtained from ATCC. These cells were grown in DMEM medium supplemented with 10% fetal bovine serum, 1% penicillin and streptomycin. Cells were sub-cultured by dilution at a ratio of 1:4. Hep3B cells were harvested by centrifugation and counted using a hemocytometer. Cells were resuspended in PBS at a concentration of 5×10^7 cells per mL. Cells were placed on ice, and then mixed with an equal volume of Matrigel™ (BD Biosciences CB-40234). This mixture was kept on ice and injected into the left flank of mice in a volume of 0.2 mL, equivalent to 5×10^6 cells per mouse. Thirty-two (32) SCID mice were inoculated subcutaneously in the left flank with 5×10^6 Hep 3B cells. Treatment was initiated when the tumors reached a mean volume of 103.7 mm^3 (standard deviation±30 mm^3, range 17-183 mm^3). Mice were allocated to four (4) groups of eight (8) mice such that mean tumor volume in each group was within the range of 95 to 104 mm^3. […] With the exception of doxorubicin (which was given IP), all compounds were given by oral gavage. […] Animal weights and conditions were recorded daily, and tumors were measured on Mondays, Wednesdays and Fridays.

[5] = tested on: COLO 205 xenograft; experiment: COLO 205 colorectal carcinoma xenograft model; type: in vivo, mouse
Description: COLO 205 (CCL-222) colorectal cancer cells were obtained from ATCC. These cells were grown in RPMI-1640 medium supplemented with 10% fetal bovine serum, 1% penicillin and streptomycin. Cells were sub-cultured by transferring floating cells to a new flask and trypsinizing adherent cells before sub-culturing at a ratio of 1:4. COLO 205 cells were harvested by centrifugation and counted using a hemocytometer. Cells were resuspended in PBS at a concentration of 5×10^7 cells per mL. Cells were placed on ice, and then mixed with an equal volume of Matrigel™ (BD Biosciences CB-40234). This mixture was kept on ice and injected into the left flank of mice in a volume of 0.2 mL, equivalent to 5×10^6 cells per mouse. Thirty-two (32) SCID mice were inoculated subcutaneously in the left flank with 5×10^6 COLO 205 cells. Treatment was initiated when the tumors reached a mean volume of 103.7 mm^3 (standard deviation±30 mm^3, range 17-183 mm^3). Mice were allocated to four (4) groups of eight (8) mice such that mean tumor volume in each group was within the range of 95 to 104 mm^3. […] With the exception of 5-FU (which was given IP on days 1 and 3), all compounds were given by oral gavage. […] Animal weights and conditions were recorded daily, and tumors were measured on Mondays, Wednesdays and Fridays.

[6] = tested on: MOLT 4 xenograft; experiment: MOLT 4 acute lymphoblastic leukemia xenograft model; type: in vivo, mouse; settings: 5 or 15 mg/kg PO daily, SCID mice, compared to vehicle
Description: MOLT 4 (CRL-1582) acute lymphoblastic leukemia cells were obtained from ATCC. These cells were grown in RPMI-1640 medium supplemented with 10% fetal bovine serum, 1% penicillin and streptomycin. Cells were sub-cultured by transferring floating cells to a new flask and trypsinizing adherent cells before subculturing at a ratio of 1:4. MOLT 4 cells were harvested by centrifugation and counted using a hemocytometer. Cells were resuspended in PBS at a concentration of 5×10^7 cells per mL. Cells were placed on ice, and then mixed with an equal volume of Matrigel™ (BD Biosciences CB-40234). This mixture was kept on ice and injected into the left flank of mice in a volume of 0.2 mL, equivalent to 5×10^6 cells per mouse. Thirty-two (32) SCID mice were inoculated subcutaneously in the left flank with 5×10^6 MOLT 4 cells. Treatment was initiated when the tumors reached a mean volume of 106.5 mm^3 (standard deviation±33.9 mm^3, CV 31.9%, range 43-181 mm^3). Mice were allocated to four (4) groups of eight (8) mice, […], such that mean tumor volume in each group was within the range of 102 to 111 mm^3. […] With the exception of doxorubicin (which was given IP), all compounds were given by oral gavage. […] Animal weights and conditions were recorded daily, and tumors were measured on Mondays, Wednesdays and Fridays.

[7] = tested on: OCIAML5; experiment: MTT assay panel; type: cell-based; settings: Homo sapiens, OCI-AML-5; OCIAML5 cells, 72 hours
Summary of the method: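 Cancer and normal cell lines were plated at line-specific densities on day 1 and exposed to compound. Viability was read as absorbance at OD 495 after adding AQueous One tetrazolium reagent to each well.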

[8] = 5 or 15 mg/kg PO daily, SCID mice, compared to vehicle

T1 sequence (O14980 whole entry): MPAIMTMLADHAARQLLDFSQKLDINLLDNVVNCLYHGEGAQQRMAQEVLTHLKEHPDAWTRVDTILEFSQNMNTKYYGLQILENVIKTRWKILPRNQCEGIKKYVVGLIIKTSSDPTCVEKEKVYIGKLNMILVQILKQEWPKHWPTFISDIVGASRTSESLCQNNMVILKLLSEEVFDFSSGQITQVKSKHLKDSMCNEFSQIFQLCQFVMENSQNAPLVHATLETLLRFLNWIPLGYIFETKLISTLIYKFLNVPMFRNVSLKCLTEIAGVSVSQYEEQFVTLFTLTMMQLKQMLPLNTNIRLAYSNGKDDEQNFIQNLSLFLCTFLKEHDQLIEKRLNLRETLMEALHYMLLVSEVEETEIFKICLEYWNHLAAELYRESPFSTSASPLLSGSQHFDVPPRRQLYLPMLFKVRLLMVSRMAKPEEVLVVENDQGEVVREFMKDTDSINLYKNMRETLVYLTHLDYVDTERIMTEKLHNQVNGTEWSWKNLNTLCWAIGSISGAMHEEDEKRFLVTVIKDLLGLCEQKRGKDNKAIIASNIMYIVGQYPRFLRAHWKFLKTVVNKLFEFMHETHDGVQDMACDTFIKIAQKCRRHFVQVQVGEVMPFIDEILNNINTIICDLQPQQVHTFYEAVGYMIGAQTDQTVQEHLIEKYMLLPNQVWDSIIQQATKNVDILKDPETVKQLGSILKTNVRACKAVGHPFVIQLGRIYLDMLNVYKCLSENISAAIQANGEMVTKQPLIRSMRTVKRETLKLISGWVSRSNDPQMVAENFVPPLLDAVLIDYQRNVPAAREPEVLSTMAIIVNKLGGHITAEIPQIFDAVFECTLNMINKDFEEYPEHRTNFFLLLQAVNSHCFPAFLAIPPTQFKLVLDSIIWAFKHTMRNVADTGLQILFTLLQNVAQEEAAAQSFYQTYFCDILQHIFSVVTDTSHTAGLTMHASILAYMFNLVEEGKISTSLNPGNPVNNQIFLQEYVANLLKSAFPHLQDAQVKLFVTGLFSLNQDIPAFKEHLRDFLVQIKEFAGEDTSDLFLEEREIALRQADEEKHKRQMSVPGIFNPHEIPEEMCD

SMILES: NC(=O)/C(=C/n1cnc(-c2cc(C(F)(F)F)cc(C(F)(F)F)c2)n1)c1cncnc1 [Compound 124, (E)-3-(3-(3,5-bis(trifluoromethyl)phenyl)-1H-1,2,4-triazol-1-yl)-2-(pyrimidin-5-yl)acrylamide]
- decrease in effectiveness after a 24 hour washout [1]: 6 fold
- nuclear localization of XPO1 cargo proteins [2]: increased or complete nuclear localization of XPO1 cargoes
- percentage of animals that showed clinical signs of arthritis ([3]; 20 mg/kg PO twice a week, study Day 6 (start of treatment)): 78%
- percentage of animals that showed clinical signs of arthritis ([3]; 20 mg/kg PO twice a week, study Day 18): 22%
- mean clinical score for all paws (arthritis scores) ([3]; 20 mg/kg or 40 mg/kg PO, compared to vehicle): reduced arthritis scores
- percentage of animals that showed clinical signs of arthritis ([3]; 40 mg/kg PO twice a week, study Day 6 (start of treatment)): 88%
- percentage of animals that showed clinical signs of arthritis ([3]; 40 mg/kg PO twice a week, study Day 18): 13%
- mean tumor volume [4, 8]: mean tumor volume was reduced
- mean tumor volume compared with standard of care ([4]; particularly 15 mg/kg PO daily, versus doxorubicin): compared favorably
- mean tumor volume [5, 8]: mean tumor volume was reduced
- mean tumor volume compared with standard of care ([5]; particularly 15 mg/kg PO daily, versus 5-FU): compared favorably
- mean tumor volume [6]: mean tumor volume was reduced
- IC50 [7]: 40 nM
